Legend:
Assay type in all cases: in vivo
[1] = test system: Alopecurus myosuroides (ALOMY); assay: Post-emergence herbicidal glasshouse test; conditions: post-emergence (sprayed after 8 days cultivation), evaluated after 13 days, 100=total damage to plant, 0=no damage to plant; for pest or weed control at 1000 g/ha: Alopecurus myosuroides, 312 h, read-out: POST Application ALOMY, damage to plant; for POST Application ALOMY, damage to plant: 1000 g/ha
Outline: (§1)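 Sow in standard soil; grow 1 d (pre-emergence) or 8 d (post-emergence) at 24/16 °C, 14 h light, 65% humidity. Spray test compound at 1000 g/ha in aqueous acetone (50:50) with 0.5% Tween 20. Grow on under the same conditions and score injury (0–100) after 13 days.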

[2] = test system: Amaranthus retoflexus (AMARE); assay: Post-emergence herbicidal glasshouse test; conditions: post-emergence (sprayed after 8 days cultivation), evaluated after 13 days, 100=total damage to plant, 0=no damage to plant; for pest or weed control at 1000 g/ha: Amaranthus retroflexus, 312 h, read-out: POST Application AMARE, damage to plant; for POST Application AMARE, damage to plant: 1000 g/ha
Outline: as §1

[3] = test system: Echinochloa crus-galli (ECHCG); assay: Post-emergence herbicidal glasshouse test; conditions: post-emergence (sprayed after 8 days cultivation), evaluated after 13 days, 100=total damage to plant, 0=no damage to plant; for pest or weed control at 1000 g/ha: Echinochloa crus-galli, 312 h, read-out: POST Application ECHCG, damage to plant; for POST Application ECHCG, damage to plant: 1000 g/ha
Outline: (§2)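 Damage rated 13 days after application on a 0 (none) to 100 (total) scale. Compounds went on at 1000 g/ha in acetone/water 50:50 plus 0.5% Tween 20, one day post-sowing for pre-emergence or eight days for post-emergence. Plants grown at 24/16° C, 14 h light, 65% humidity.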

[4] = test system: Setaria faberi (SETFA); assay: Post-emergence herbicidal glasshouse test; conditions: post-emergence (sprayed after 8 days cultivation), evaluated after 13 days, 100=total damage to plant, 0=no damage to plant; for pest or weed control at 1000 g/ha: Setaria faberi, 312 h, read-out: POST Application SETFA, damage to plant; for POST Application SETFA, damage to plant: 1000 g/ha
Outline: as §1

[5] = test system: Solanum nigrum (SOLNI); assay: Post-emergence herbicidal glasshouse test; conditions: post-emergence (sprayed after 8 days cultivation), evaluated after 13 days, 100=total damage to plant, 0=no damage to plant; for pest or weed control at 1000 g/ha: Solanum nigrum, 312 h, read-out: POST Application SOLNI, damage to plant; for POST Application SOLNI, damage to plant: 1000 g/ha
Outline: as §1

[6] = test system: Alopecurus myosuroides (ALOMY); assay: Pre-emergence herbicidal glasshouse test; conditions: pre-emergence (sprayed after one day cultivation), evaluated after 13 days, 100=total damage to plant, 0=no damage to plant; for pest or weed control at 1000 g/ha: Alopecurus myosuroides, 312 h, read-out: PRE Application ALOMY, damage to plant; for PRE Application ALOMY, damage to plant: 1000 g/ha
Outline: as §1

[7] = test system: Amaranthus retoflexus (AMARE); assay: Pre-emergence herbicidal glasshouse test; conditions: pre-emergence (sprayed after one day cultivation), evaluated after 13 days, 100=total damage to plant, 0=no damage to plant; for pest or weed control at 1000 g/ha: Amaranthus retroflexus, 312 h, read-out: PRE Application AMARE, damage to plant; for PRE Application AMARE, damage to plant: 1000 g/ha
Outline: as §1

[8] = test system: Echinochloa crus-galli (ECHCG); assay: Pre-emergence herbicidal glasshouse test; conditions: pre-emergence (sprayed after one day cultivation), evaluated after 13 days, 100=total damage to plant, 0=no damage to plant; for pest or weed control at 1000 g/ha: Echinochloa crus-galli, 312 h, read-out: PRE Application ECHCG, damage to plant; for PRE Application ECHCG, damage to plant: 1000 g/ha
Outline: as §2

[9] = test system: Setaria faberi (SETFA); assay: Pre-emergence herbicidal glasshouse test; conditions: pre-emergence (sprayed after one day cultivation), evaluated after 13 days, 100=total damage to plant, 0=no damage to plant; for pest or weed control at 1000 g/ha: Setaria faberi, 312 h, read-out: PRE Application SETFA, damage to plant; for PRE Application SETFA, damage to plant: 1000 g/ha
Outline: as §1

[10] = test system: Solanum nigrum (SOLNI); assay: Pre-emergence herbicidal glasshouse test; conditions: pre-emergence (sprayed after one day cultivation), evaluated after 13 days, 100=total damage to plant, 0=no damage to plant; for pest or weed control at 1000 g/ha: Solanum nigrum, 312 h, read-out: PRE Application SOLNI, damage to plant; for PRE Application SOLNI, damage to plant: 1000 g/ha
Outline: as §1

Compound	pest or weed control at 1000 g/ha [1]	pest or weed control at 1000 g/ha [2]	pest or weed control at 1000 g/ha [3]	pest or weed control at 1000 g/ha [4]	pest or weed control at 1000 g/ha [5]	pest or weed control at 1000 g/ha [6]	pest or weed control at 1000 g/ha [7]	pest or weed control at 1000 g/ha [8]	pest or weed control at 1000 g/ha [9]	pest or weed control at 1000 g/ha [10]	POST Application ALOMY, damage to plant [1]	POST Application AMARE, damage to plant [2]	POST Application ECHCG, damage to plant [3]	POST Application SETFA, damage to plant [4]	POST Application SOLNI, damage to plant [5]	PRE Application ALOMY, damage to plant [6]	PRE Application AMARE, damage to plant [7]	PRE Application ECHCG, damage to plant [8]	PRE Application SETFA, damage to plant [9]	PRE Application SOLNI, damage to plant [10]
O=C1CCCC(=O)C1C(=O)c1cc2ccc(Oc3ccccc3)nc2nc1C(F)(F)F [Compound 1.17, 2-(7-phenoxy-2-trifluoromethyl-[1,8]-naphthyridine-3-carbonyl)-cyclohexane-1,3-dione]	90%	70%	90%	100%	100%	100%	100%	100%	100%	100%										
O=C(c1cc2cc(F)c(O)nc2nc1C(F)(F)F)C1C(=O)C2CCC(C2)C1=O (stereo not shown) [Compound 3.1]	60%	80%	70%	80%	80%	60%	100%	90%	90%	100%										
O=C1CCCC(=O)C1C(=O)c1cc2ccc(Br)nc2nc1C(F)(F)F [Compound 1.99]	30%	100%	80%	80%	70%	10%	100%	90%	40%	90%										
CC(C)Cc1nc2nc(C(F)(F)F)c(C(=O)C3C(=O)CCCC3=O)cc2cc1F [Compound 1.70, 2-[6-fluoro-7-(2-methylpropyl)-2-trifluoromethyl-[1,8]-naphthyridine-3-carbony]-cyclohexane-1,3-dione]											90	90	90	90	80	90	40	100	100	100
CN(Cc1nc2nc(C(F)(F)F)ccc2cc1C(=O)C1C(=O)CCCC1=O)S(C)(=O)=O [Compound 1.108, 2-[{methanesulfonyl-N-methylaminomethyl}-7-trifluoromethyl-[1,8]-naphthyridine-3-carbony]-cyclohexane-1,3-dione]											20	70	80	80	90	0	80	70	40	90
Cc1nc2nc(C(F)(F)F)c(C(=O)C3=C(OC(=O)C(C)C)CCCC3=O)cc2cc1F [Compound 4.21, Isobutyric acid 2-(6-fluoro-7-methyl-2-trifluoromethyl-[1,8]-naphthyridine-3-carbonyl)-3-oxo-cyclohex-1-enyl ester]	80%	90%	80%	80%	80%	80%	100%	100%	100%	100%										
Cc1nc2nc(C(F)(F)C(F)(F)F)c(C(=O)C3C(=O)CCCC3=O)cc2cc1F [Compound 1.94]											60	100	80	80	90	20	100	100	100	90
